Experiment: log P value (octanol/water partition coefficient)
Conditions: not given

| Compound | logP |
| --- | --- |
| C=CC(=O)OCCCCCCCCCOC(=O)C=C [LIGHT ACRYLATE 1,9ND-A, 1,9-nonanediol diacrylate] | 3.68 |

Same assay, conditions: shake flask method JIS Z 7260 or ChemDraw Ultra calculation, not stated which

| Compound | log P |
| --- | --- |
| C=CC(=O)OCCCCCCCCCCOC(=O)C=C [1,10-decanediol diacrylate] | 4.10 |
| CSc1ccc(C(=O)C(C)(C)N2CCOCC2)cc1 [IRGACURE 907, 2-methyl-1-(4-methylthiophenyl)-2-morpholinopropan-1-one] | 2.09 |
| C=CC(=O)OCCN=C=O [Karenz AOI] | 1.6 |
| C=CC(=O)OCC(C)OCC(C)OCC(C)OC(=O)C=C (stereo not drawn) [TPGDA, tripropylene glycol diacrylate] | 1.68 |
| bisphenol A-propylene oxide (2 mole) adduct di(meth)acrylate | 6.10 |
